The values that follow come from patent US20110129467A1, “THERAPEUTIC COMBINATION COMPRISING AN AURORA KINASE INHIBITOR AND ANTIPROLIFERATIVE AGENTS” (NERVIANO MEDICAL SCIENCES S.R.L., priority 2008, published 2011).

Read-outs that look alike come from different tables or passages of the source.

In data set [1] the test system is HL-60 human acute myeloid leukaemia cells. The following applies: HL-60 sc in SCID mice; for T-C: delay vs control to reach 1 g. Here is the method:
The treatment started 12 days later tumor cells injection when tumors were palpable.
When combined, Compound 1 was administered in the interval between the bortezomib treatments at days 13, 14, 15, 17, 18, 19, 21, 22, 23, 25, 26 and 27. […] Tumor growth was assessed by caliper.

The test system is the same in data set [2]. The following applies: HL-60 model; previously demonstrated; cited from earlier work.
The subject of data set [3] is DU145 prostate carcinoma cells. The data set is described as follows: In vivo antitumor efficacy, DU145 prostate carcinoma subcutaneous xenograft in athymic mice. The following applies: Compound 1 15 mg/kg ip BID, Bevacizumab 20 mg/kg ip days 9, 13, 17; for Time to reach 1 g / T-C: DU145 sc in athymic mice; for T-C: delay vs control to reach 1 g.
Description: Balb, Nu\Nu male mice, from Harlan (Italy), were maintained in cages with paper filter cover, food and bedding sterilized and water acidified. 2.5×10^6 DU145 prostate carcinoma cells (from the American Type Culture Collection) were injected subcutaneously in athymic mice. […] The treatment started at day 9 after cell injection, when tumors were palpable with a tumor weight mean for all the groups of 0.15 g.
Bevacizumab was administered intraperitoneally in a volume of 10 ml/kg at the dose of 20 mg/kg on days 9, 13, 17 from the days of tumor cells injection. […] Tumor growth and body weight were measured every 3 days. Tumor growth was assessed by caliper. […] This delay (T-C value) was defined as the difference of time (in days) required for the treatment group (T) and the control group(C) tumors to reach a predetermined size (1 g). Toxicity was evaluated on the basis of body weight reduction.
The subject of data set [4] is DU145 prostate carcinoma cells. Particulars: previously demonstrated (The Prostate 36: 1-10, 1998); cited from earlier work.
Setting [5] is: Compound 1 15 mg/kg ip BID, Bortezomib 0.5 mg/kg iv days 12, 16, 20, 24.
[6] abbreviates: Bortezomib 1 mg/kg iv days 12, 16, 20, 24 (combination: + Compound 1 15 mg/kg ip).

Take `CO[C@@H](C(=O)N1Cc2[nH]nc(NC(=O)c3ccc(N4CCN(C)CC4)cc3)c2C1)c1ccccc1` [Compound 1, N-{5-[(2R)-2-methoxy-2-phenylethanoyl]-1,4,5,6-tetrahydropyrrolo[3,4-c]pyrazol-3-yl}-4-(4-methylpiperazin-1-yl)benzamide]: in data set [1] (setting [5]), the “Time to reach 1 g” value was 24.7 days and the “T-C” value was 9.1 days. Moreover, the “effect on growth of the tumor model in vivo” value in data set [2] is “inhibits growth of the model in vivo”. In data set [3], the “Time to reach 1 g” value was determined as 23.9 days and the “T-C” value is 8.5 days.

`CC(C)C[C@H](NC(=O)[C@H](Cc1ccccc1)NC(=O)c1cnccn1)B(O)O` [Bortezomib]: in data set [1] (setting [6]), the “Time to reach 1 g” value turned out to be 23.8 days and the “T-C” value was 8.2 days. Moreover, in data set [1] (setting [5]), the “Time to reach 1 g” value is 19 days and the “T-C” value is recorded as 3.4 days.

“Bevacizumab: antibody to vascular endothelial growth factor; marketed as Avastin”: the “effect on angiogenesis and growth of the tumor model in vivo” value in data set [4] was “inhibits angiogenesis and growth of the model in vivo”. Further, in data set [3], the “Time to reach 1 g” value is reported as 18.5 days and the “T-C” value was 3.1 days. For the same compound, in data set [3] (evaluated on body weight reduction), the Toxicity is 0/8.
